“Also recorded” adds a separate entry of the source. Where a name gives a salt, the structure may show the parent alone.
Assays:
[1] = Laser characteristics of pyrromethene-BF2 complexes under flashlamp excitation (Table IV); conditions: DMA/MeOH
[2] = P-BF2 dyes dispersed in acrylic co-polymer (solid-state laser)
Text: Any laser dye of the present invention may be substituted for the dye in any of the examples of that incorporated patent. The matrix generally includes solid polymeric host laser rods prepared using bulk polymerization of acrylic acid ester comonomers.

[3] = Triplet-triplet (T--T) absorption; format: physicochemical; conditions: fluorescent spectral area
Method: The T--T absorption spectrum was recorded at 77K, employing a 1×10^-4 molar solution of 2-methyltetrahydrofuran as solvent.

breast tumors = assay: Photodynamic therapy of DMBA-induced breast tumors, intratumor injection (Table VIII); format: in vivo, female Sprague Dawley rats; conditions: for COMPLETE RESPONSE (ANIMALS) / FINAL TOTAL TUMOR NO. / FINAL MEAN TUMOR VOLUME: four weeks
Method: Breast tumors were induced in fifty-day-old female Sprague Dawley rats by the oral feeding of dimethylbenzanthracene (DMBA) in peanut oil. Individual rats were fed 10 mg DMBA per 100 g body weight via gavage tubes. Palpable tumors developed 45 to 92 days after feeding. […] Following tumor development, tumors were measured and injected with PMPDS-BF2 dissolved in saline ([…] was injected into the center of the tumors to a concentration of 20 μg/cm^3 of tumor volume. Twenty-four hours after intratumor injection, the rats were anesthetized using phenobarbital (2 mg/kg i.p.) and the injected tumors were exposed to light from either a quartz lamp (100 or 250 w) or an argon laser (with 488/514 and 628 nm frequencies) for 10-20 minutes. Also included in this experiment were three control groups: (1) saline injected, unirradiated tumors; (2) saline injected, irradiated tumors; (3) PMPDS-BF2 injected, and unirradiated tumors.

[4] = test system: human ovarian tumor cells; assay: Photodynamic growth inhibition of human ovarian cancer cells in vitro (soft agar); format: cell-based
Method: 1,3,5,7,8-pentamethylpyrromethene-boron difluoride-2,6-disodium disulfonate salt (PMPDS-BF2) and bimane diphosphonate were prepared according to previously described methods.
Human ovarian cells from fifteen individual patients were evaluated. All cancers were epithelial originating ovarian adenocarcinomas. Each cancer had been passed through at least one culture in RPMI-1640 (10% FBA) medium prior to use in the present study. In each case cells were harvested and washed in RPMI-1640 medium and resuspended in concentrations of 2.6×10^6 cells/ml at 5° C. The cells (2.6×10^6 cells/ml) were then incubated in a RPMI-1640 growth medium (containing 10% fetal bovine […], penicillin 100 U/ml and streptomycin 100 μg/ml) pH, 7.4 with graded doses of PMPDS-BF2 complex for 30 minutes at 37° C. in a 5% CO2 /air incubator with gentle shaking. The three concentrations of PMPDS-BF2 evaluated in this study were 0.004 μg, 0.04 μg, and 0.4 μg/ml of medium. The cell suspension was then washed with cold RPMI-1640 medium to remove extracellular PMPDS-BF2 complex, and then the cells were resuspended in fresh RPMI growth medium. Fifteen (15) ml portions of the cell suspensions (2.6×10^6 cells/ml) were irradiated in glass tubes at 37° C. in room air over a 10-20 minute period using a General Electric sun lamp. Controls were cells exposed to PMPDS-BF2 with no light exposure, cells with light exposure alone and cells with neither exposure to light nor chemicals.
Under identical conditions as above, bimane diphosphonate was evaluated for cytotoxic activities in the presence and absence of light. After the above incubations with PMPDS-BF2 or bimanes±light as controls, melted Bacto-agar (Difco Laboratories, Inc., Detroit, Mich.) was added to the cell suspensions to a final concentration of 0.3% agar. The mixtures were plated in 35 mm plastic tissue culture dishes on a feeder layer containing an enriched McCoy's 5A medium and 0.5% agar with the addition of 2-mercaptoethanol (5 mM) and DEAE-dextran. The seeding density for the cells in this study was kept between 1-5×10^4 cells per dish and the plates incubated at 37° C. in a CO2 incubator. Incubation was continued for another 2-3 weeks and the plates examined under an inverted phase contrast microscope and cells counted. Since these cells grow as tight aggregates in soft-agar, it was impossible to determine the number of cells in each growth. Instead, an ocular micrometer was used to count colonies 30 μm or larger in size. Plating efficiency, defined as the number of colonies formed per 100 viable cells plated, was compared between groups.

[5] = test system: metastatic breast cancer spread to the chest wall; assay: Topical photodynamic treatment of metastatic breast cancer of the chest wall, case history; format: in vivo, patient
Text: The following case history also illustrates topical application of one of the compounds of the present invention in a person with a 12-year history of metastatic breast cancer spread to the chest wall. The patient had been treated with combinations of numerous chemotherapeutic agents and radiation therapy. Their cancer continued to progress and they received nine weekly treatments with a topical 0.3% solution of 1,3,5,7,8-pentamethylpyrromethene boron difluoride-2,6-disulfonate (PMPDS-BF2) in dimethylsulfoxide applied to the chest wall lesions followed by exposure to a General Electric sunlamp for ten minutes. The patient had initially a greater than 50% shrinkage of their tumor, which lasted over nine weeks.

[6] = topical 0.3% solution in dimethylsulfoxide, sunlamp ten minutes

With CC1=C(S(=O)(=O)O)C(C)=[N+]2C1=C(C)c1c(C)c(S(=O)(=O)O)c(C)n1[B-]2(F)F [PMPDS-BF2, Disodium salt of 4,4-difluoro-1,3,5,7,8-pentamethyl-4-bora-3a,4a-diaza-s-indacene-2,6-disulfonic acid monohydrate] the Life [1] was “very long”, the “solubility in the polymer matrix” value [2] was “particularly soluble” and the “T--T absorption” value [3] was “barely detectable”. The “T--T absorption ε.tau.” value [3] was ~ 3×10^-3, the “COMPLETE RESPONSE (ANIMALS)” value (breast tumors; 20 ug/cm^3, no light) was 2/10 and the “FINAL TOTAL TUMOR NO.” value (breast tumors; 20 ug/cm^3, no light, initial 12) was 13. The “FINAL MEAN TUMOR VOLUME” value (breast tumors; 20 ug/cm^3 intratumor plus light (quartz lamp 100 watt, 20 min), initial 0.3) was 0.1 cm^3, the “FINAL MEAN TUMOR VOLUME” value (breast tumors; 20 ug/cm^3 intratumor, no light, initial 0.2) was 0.7 cm^3 and the “COMPLETE RESPONSE (ANIMALS)” value (breast tumors; 20 ug/cm^3 plus light) was 7/10. For the same compound, the “FINAL TOTAL TUMOR NO.” value (breast tumors; 20 ug/cm^3 plus light, initial 14) was 3, the tumor necrosis (breast tumors; injected and irradiated) was “Tumor necrosis was observed” and the tumor remission (breast tumors; injected and irradiated) was 50-100%. For the same compound, the necrosis or remission (breast tumors; injected, not irradiated) was “no necrosis or remission”, the “inhibition in cell growth” value ([4]; 0.004 μg/ml plus light) was 40-70% and the cell morphology ([4]; 0.004 μg/ml plus light, within 48 hours) was “pyknotic changes with nuclear fragmentation”. The “colonization / morphology of cells” value ([4]; 0.04 μg/ml plus light, three days post exposure) was “unable to colonize, demonstrated pyknotic changes in the nucleus and cytoplasmic discoloration”, the “inhibition of cell growth” value ([4]; 0.4 μg/ml plus light) was 100% and the “cytotoxic response without light” value ([4]; absence of light exposure, monohydrate) was “did not demonstrate significant cytotoxic responses; also recorded: did not produce cytotoxicities”. The shrinkage of tumor ([5]; topical 0.3% solution in dimethylsulfoxide, nine weekly treatments, sunlamp ten minutes) was “greater than 50%”, the “duration of tumor shrinkage” value [5, 6] was “over nine” and the toxic reactions [5, 6] was “no toxic reactions”. For the same compound, the “course after nine week shrinkage” value ([5]; topical 0.3% solution, after nine weeks) was “the metastatic lesions again began to grow”.
